In patent publication US8614236B2 (University of Washington, priority 2006, dated 2013):

Assays:
Beagle dogs [1] = assay: Dog study: arterial blood gases, ventilation and acid-base status in normoxia and hypoxia; type: in vivo
Text: The dogs were kept under highly standardized conditions and received a standardized diet five days before the experiments. […] To permit spontaneous breathing through a low resistance circuit, a face mask was attached, which enclosed the dog's snout in a leak proof fashion. This custom made mask is equipped with a 2.5 cm ID connector to connect it to a ventilator set to CPAP mode (3 4 cmH20) (Servo900C; Siemens-Elema, Erlangen/Germany).
(§1) Six dogs were studied in five different protocols in randomized order:
5) Ethoxzolamide (Sigma-Aldrich, Steinheim/Germany) intravenously: Bolus ethoxzolamide (1 mg/kg), followed by a continuous infusion of 1 mg·kg^−1·h^−1.
The hemodynamic measurements (arterial blood pressure, heart rate, central venous pressure, pulmonary artery pressure, pulmonary capillary wedge pressure), minute ventilation, renal function data, time points for blood samples for blood gases, actual bicarbonate, base excess, plasma electrolytes and hormones, measurements of plasma and urinary values were according to former studies.
(§2) Values are given as means±SEM (n=6). For intra-group comparisons a general linear model of analysis of variance (GLM-ANOVA) for repeated measures was applied (NCSS97/PASS 2000, Saugus/MA, USA). Post-hoc testing of means was performed with Student's t-test. Level of significance for error of first order was adjusted according to Holm's procedure. Statistical significance was assumed at p<0.05.

Beagle dogs [2] = assay: Dog study: pulmonary and systemic hemodynamics, hypoxic pulmonary vasoconstriction; type: in vivo; conditions: for MPAP and PVR during hypoxia (words): iv bolus + continuous infusion (AZ, benzolamide 2 mg/kg + 2 mg/kg/h; ethoxzolamide 1 mg/kg + 1 mg/kg/h)
Description: A total of 30 experiments were performed on six female Beagle dogs (body wt 14.3±0.3 kg). The dogs were kept under highly standardized conditions and received a standardized diet five days before the experiments. The preparation and catheterization of the conscious dog were performed according to former experiments as in Höhne C., et al., J Appl Physiol (2004), which is hereby incorporated by reference in its entirety. To permit spontaneous breathing through a low resistance circuit, a face mask was attached, which enclosed the dog's snout in a leak proof fashion. This custom made mask is equipped with a 2.5 cm ID connector to connect it to a ventilator set to CPAP mode (3 4 cmH20) (Servo900C; Siemens-Elema, Erlangen/Germany).
as §1
4) Benzolamide intravenously: Bolus (2 mg/kg), followed by a continuous infusion of 2 mg·kg^−1·h^−1, a dosage which inhibits only renal and vascular endothelial extracellular CA, without affecting red cell CA as in Travis D. M., et al. J Pharmacol Exp Ther (1964), which is hereby incorporated by reference in its entirety. 5) Ethoxzolamide (Sigma-Aldrich, Steinheim/Germany) intravenously: Bolus ethoxzolamide (1 mg/kg), followed by a continuous infusion of 1 mg·kg^−1·h^−1.
In control experiments, the dogs breathed room air (21% O2, 79% N2; normoxia) for one hour, followed by breathing a gas mixture containing 10% O2 and 90% N2 for two hours (hypoxia). The time course was the same for the CA inhibitor experiments, but F1O2 was reduced to 0.09 during the hypoxia period to match the arterial and alveolar PO2 of the control dogs, which otherwise would have been higher on 10% O2 as a result of the known ventilatory stimulant effect of all CA inhibitors. See Höhne C., et al., J Appl Physiol 97:515-521 (2004), which is hereby incorporated by reference in its entirety. The hemodynamic measurements (arterial blood pressure, heart rate, central venous pressure, pulmonary artery pressure, pulmonary capillary wedge pressure), minute ventilation, renal function data, time points for blood samples for blood gases, actual bicarbonate, base excess, plasma electrolytes and hormones, measurements of plasma and urinary values were according to former studies. See Höhne C., et al., J Appl Physiol 90:1842-1848 (2001), which is hereby incorporated by reference in its entirety.
as §2

[3] = iv bolus + continuous infusion, hypoxia 2nd h
[4] = iv bolus + continuous infusion, hypoxia 3rd h
[5] = iv bolus + continuous infusion, normoxia 1st h
[6] = po 5 mg/kg 12 and 1 hr before, hypoxia 2nd h
[7] = po 5 mg/kg 12 and 1 hr before, hypoxia 3rd h
[8] = po 5 mg/kg 12 and 1 hr before, normoxia 1st h

CC(=O)Nc1nnc(S(N)(=O)=O)s1 [AZ, acetazolamide]
BEa, arterial base excess (Beagle dogs [1]; [3]): -4.0 ± 0.3 mM | HCO3a, arterial actual bicarbonate concentration (Beagle dogs [1]; [3]): 19.0 ± 0.4 mM | PaCO2, arterial carbon dioxide tension (Beagle dogs [1]; [3]): 30 ± 1 Torr | PaO2, arterial oxygen tension (Beagle dogs [1]; [3]): 37 ± 1 Torr | VE, minute ventilation (Beagle dogs [1]; [3]): 5.8 ± 0.6 L/min | BEa, arterial base excess (Beagle dogs [1]; [4]): -5.6 ± 0.5 mM | HCO3a, arterial actual bicarbonate concentration (Beagle dogs [1]; [4]): 17.5 ± 0.5 mM | PaCO2, arterial carbon dioxide tension (Beagle dogs [1]; [4]): 28 ± 1 Torr | PaO2, arterial oxygen tension (Beagle dogs [1]; [4]): 39 ± 1 Torr | VE, minute ventilation (Beagle dogs [1]; [4]): 7.0 ± 0.6 L/min | BEa, arterial base excess (Beagle dogs [1]; [5]): -3.1 ± 0.5 mM | HCO3a, arterial actual bicarbonate concentration (Beagle dogs [1]; [5]): 20.9 ± 0.6 mM | PaCO2, arterial carbon dioxide tension (Beagle dogs [1]; [5]): 34 ± 1 Torr | PaO2, arterial oxygen tension (Beagle dogs [1]; [5]): 106 ± 3 Torr | VE, minute ventilation (Beagle dogs [1]; [5]): 4.0 ± 0.3 L/min | BEa, arterial base excess (Beagle dogs [1]; [6]): -5.8 ± 0.4 mM | HCO3a, arterial actual bicarbonate concentration (Beagle dogs [1]; [6]): 17.6 ± 0.6 mM | PaCO2, arterial carbon dioxide tension (Beagle dogs [1]; [6]): 29 ± 1 Torr | PaO2, arterial oxygen tension (Beagle dogs [1]; [6]): 37 ± 1 Torr | VE, minute ventilation (Beagle dogs [1]; [6]): 5.9 ± 0.2 L/min | BEa, arterial base excess (Beagle dogs [1]; [7]): -6.5 ± 0.4 mM | PaCO2, arterial carbon dioxide tension (Beagle dogs [1]; [7]): 27 ± 1 Torr | PaO2, arterial oxygen tension (Beagle dogs [1]; [7]): 38 ± 1 Torr | VE, minute ventilation (Beagle dogs [1]; [7]): 6.1 ± 0.2 L/min | BEa, arterial base excess (Beagle dogs [1]; [8]): -7.2 ± 0.6 mM | HCO3a, arterial actual bicarbonate concentration (Beagle dogs [1]; [8]): 17.1 ± 0.7 mM | PaCO2, arterial carbon dioxide tension (Beagle dogs [1]; [8]): 32 ± 1 Torr | PaO2, arterial oxygen tension (Beagle dogs [1]; [8]): 108 ± 2 Torr | VE, minute ventilation (Beagle dogs [1]; [8]): 4.5 ± 0.3 L/min | pHa, arterial pH (Beagle dogs [1]; [8]): 7.34 ± 0.01 | MPAP and PVR during hypoxia (words) (Beagle dogs [2]): did not change | MPAP and PVR during hypoxia (words) (Beagle dogs [2]; listed as acetazolamide): still inhibited | CO, cardiac output (Beagle dogs [2]; [3]): 2.6 ± 0.2 L/min | CVP, central venous pressure (Beagle dogs [2]; [3]): 2.6 ± 0.6 cmH2O | HR, heart rate (Beagle dogs [2]; [3]): 92 ± 9 beats/min | MAP, mean arterial pressure (Beagle dogs [2]; [3]): 109 ± 7 mmHg | MPAP, mean pulmonary arterial pressure (Beagle dogs [2]; [3]): 15 ± 1 mmHg | PCWP, pulmonary capillary wedge pressure (Beagle dogs [2]; [3]): 3.5 ± 0.3 cm H2O | SVR, systemic vascular resistance (Beagle dogs [2]; [3]): 3348 ± 260 dyn · s^1 · cm^−5 | CO, cardiac output (Beagle dogs [2]; [4]): 2.4 ± 0.1 L/min | CVP, central venous pressure (Beagle dogs [2]; [4]): 1.8 ± 0.5 cmH2O | HR, heart rate (Beagle dogs [2]; [4]): 98 ± 8 beats/min | MAP, mean arterial pressure (Beagle dogs [2]; [4]): 111 ± 6 mmHg | MPAP, mean pulmonary arterial pressure (Beagle dogs [2]; [4]): 14 ± 1 mmHg | PCWP, pulmonary capillary wedge pressure (Beagle dogs [2]; [4]): 3.3 ± 0.2 cm H2O | SVR, systemic vascular resistance (Beagle dogs [2]; [4]): 3675 ± 241 dyn · s^1 · cm^−5 | CO, cardiac output (Beagle dogs [2]; [5]): 2.4 ± 0.2 L/min | CVP, central venous pressure (Beagle dogs [2]; [5]): 1.8 ± 0.3 cmH2O | HR, heart rate (Beagle dogs [2]; [5]): 70 ± 5 beats/min | MAP, mean arterial pressure (Beagle dogs [2]; [5]): 97 ± 4 mmHg | MPAP, mean pulmonary arterial pressure (Beagle dogs [2]; [5]): 14 ± 0 mmHg | PCWP, pulmonary capillary wedge pressure (Beagle dogs [2]; [5]): 3.5 ± 0.6 cm H2O | SVR, systemic vascular resistance (Beagle dogs [2]; [5]): 3347 ± 260 dyn · s^1 · cm^−5 | PVR during hypoxia (Beagle dogs [2]; po 5 mg/kg 12 and 1 hr before): did not change | MPAP during hypoxia (Beagle dogs [2]; po 5 mg/kg 12 and 1 hr before, after 2 hrs of hypoxia): increased slightly | CO, cardiac output (Beagle dogs [2]; [6]): 2.8 ± 0.2 L/min | CVP, central venous pressure (Beagle dogs [2]; [6]): 1.5 ± 0.2 cmH2O | HR, heart rate (Beagle dogs [2]; [6]): 101 ± 9 beats/min | MAP, mean arterial pressure (Beagle dogs [2]; [6]): 110 ± 5 mmHg | MPAP, mean pulmonary arterial pressure (Beagle dogs [2]; [6]): 17 ± 1 mmHg | PCWP, pulmonary capillary wedge pressure (Beagle dogs [2]; [6]): 3.3 ± 0.3 cm H2O | SVR, systemic vascular resistance (Beagle dogs [2]; [6]): 3238 ± 326 dyn · s^1 · cm^−5 | CO, cardiac output (Beagle dogs [2]; [7]): 2.7 ± 0.3 L/min | CVP, central venous pressure (Beagle dogs [2]; [7]): 1.3 ± 0.2 cmH2O | HR, heart rate (Beagle dogs [2]; [7]): 103 ± 7 beats/min | MAP, mean arterial pressure (Beagle dogs [2]; [7]): 108 ± 7 mmHg | MPAP, mean pulmonary arterial pressure (Beagle dogs [2]; [7]): 17 ± 2 mmHg | PCWP, pulmonary capillary wedge pressure (Beagle dogs [2]; [7]): 3.6 ± 0.4 cm H2O | SVR, systemic vascular resistance (Beagle dogs [2]; [7]): 3270 ± 380 dyn · s^1 · cm^−5 | CO, cardiac output (Beagle dogs [2]; [8]): 2.5 ± 0.2 L/min | CVP, central venous pressure (Beagle dogs [2]; [8]): 2.0 ± 0.3 cmH2O | HR, heart rate (Beagle dogs [2]; [8]): 78 ± 5 beats/min | MAP, mean arterial pressure (Beagle dogs [2]; [8]): 99 ± 1 mmHg | MPAP, mean pulmonary arterial pressure (Beagle dogs [2]; [8]): 12 ± 1 mmHg | PCWP, pulmonary capillary wedge pressure (Beagle dogs [2]; [8]): 3.5 ± 0.3 cm H2O | SVR, systemic vascular resistance (Beagle dogs [2]; [8]): 3301 ± 320 dyn · s^1 · cm^−5
